Source: US9643936B1, “Form of tribenuron-methyl, a process for its preparation and use of the same” (ROTAM AGROCHEM INTERNATIONAL COMPANY LIMITED, priority 2015, dated 2017)

How the values were obtained:
Format in all cases: physicochemical
[1] = Determining water solubility (pH 7 buffer, HPLC of supernatant); conditions: for Concentration measured by HPLC after treatment, %: pH 7 buffer, 20° C.
Protocol: A stock pH 7 buffer solution was prepared by adding aqueous sodium hydroxide solution (0.1 M, 145 mL) to aqueous potassium dihydrogen phosphate solution (0.1 M, 250 mL), and then adding sufficient distilled water to adjust the final volume to 500 mL. At least 1 time and up to about 5 times the amount of tribenuron-methyl needed for saturation was added to a mixing vessel containing stock buffer solution at the test temperature (e.g., 20° C.). The mixture was magnetically stirred in the dark while being maintained at the test temperature. Samples were periodically removed for analysis. The samples were centrifuged using a high speed, temperature-controlled centrifuge at the test temperature for about 20 minutes at >12000 G to remove suspended particles. An aliquot of each supernatant was taken for analysis. The concentration of tribenuron-methyl in the supernatant was determined by a high pressure liquid chromatography (HPLC) with a reversed phase chromatography column and UV detection. The method should include development of best-fit calibration curves based on at least three standards using linear regression analysis. Samples were successively withdrawn from the mixing vessel and analyzed until three successive samples show little or no variation in concentration. The test is preferably replicated to ensure accuracy.

[2] = Cleanout test (residual tribenuron-methyl in acetonitrile extract of rinsed bottle); conditions: for Cleanout rating, % (concentration of tribenuron-methyl in the acetonitrile solution): lower rating = more effective cleanout
Protocol: The cleanout test was conducted by dispersing in water a sample to produce a concentration that is normally used when applying the herbicide: 25% tribenuron-methyl. The sample was added to tap water (300 mL) in a 400 mL beaker and magnetically stirred for 2 minutes. The mixture was then stirred for 2 minutes, whereupon the resulting dispersion was dispensed in three 100 mL aliquots to 4-oz (118 mL) polyethylene bottles. The bottles were capped, inverted twice and allowed to stand overnight.
After standing overnight, each individual bottle was inverted twice and the liquid contents were then poured out. Tap water (10 mL) was added and the bottle was inverted until all sediment was re-suspended, whereupon the contents were poured out. Tap water (100 mL) was added and the bottle was inverted twice and then allowed to stand undisturbed for 10 minutes. The bottle was inverted twice more and the contents were poured out. Acetonitrile (10 mL) was added to the bottle to extract any remaining material. The acetonitrile solution was analyzed by reversed-phase liquid chromatography with UV detection. The cleanout rating (the concentration of tribenuron-methyl herbicide in the acetonitrile solution) is reported in % in Table 6 below.

[3] = Viscosity (stated finding, no method given)
[4] = OD formulation, measured vs original concentration 40%
[5] = OD formulation, original concentration 40%
[6] = SG formulation, measured vs original concentration 25%
[7] = SG formulation, original concentration 25%
[8] = WG formulation, measured vs original concentration 25%
[9] = WG formulation, original concentration 25%

In the case of `COC(=O)c1ccccc1S(=O)(=O)NC(=O)N(C)c1nc(C)nc(OC)n1` [Amorphous tribenuron-methyl (prepared in Example 1)] [methyl 2-[4-methoxy-6-methyl-1,3,5-triazin-2-yl(methyl)carbamoylsulfamoyl]benzoate, reference compound], the Solubility [1, 4] was 35%, the “Concentration measured by HPLC after treatment, %” value (shortened to “Concentration measured by HPLC … %”) [1, 5] was 14% and the Solubility [1, 6] was 60%. For the same compound, the “Concentration measured by HPLC … %” value [1, 7] was 15%, the Solubility [1, 8] was 48% and the “Concentration measured by HPLC … %” value [1, 9] was 12%. For the same compound, the “Cleanout rating, % (concentration of tribenuron-methyl in the acetonitrile solution)” value (from here on “Cleanout rating, %”) ([2]; OD formulation, prepared in Example 1) was 26%, the “Cleanout rating, %” value ([2]; SG formulation, prepared in Example 1) was 10% and the “Cleanout rating, %” value ([2]; WG formulation) was 13%. For the same compound, the “Viscosity (in words)” value ([3]; listed as tribenuron-methyl in amorphous state) was “highly viscous”.

For `COC(=O)c1ccccc1S(=O)(=O)NC(=O)N(C)c1nc(C)nc(OC)n1` [Tribenuron-methyl, crystalline modification I, 98% (prepared] [methyl 2-[4-methoxy-6-methyl-1,3,5-triazin-2-yl(methyl)carbamoylsulfamoyl]benzoate], the Solubility [1, 4] was 88%, the “Concentration measured by HPLC … %” value [1, 5] was 35% and the Solubility [1, 6] was 99.6%. The “Concentration measured by HPLC … %” value [1, 7] was 24.9%, the Solubility [1, 8] was 92% and the “Concentration measured by HPLC … %” value [1, 9] was 23%. The “Solubility (in words)” value ([1]; compared with amorphous tribenuron-methyl) was “significant increase in its solubility”, the “Cleanout rating, %” value ([2]; OD formulation) was 5% and the “Cleanout rating, %” value ([2]; SG formulation) was 0.1%. The “Cleanout rating, %” value ([2]; WG formulation) was 2%, the “Cleanout properties (in words)” value ([2]; compared with known amorphous tribenuron-methyl product) was “markedly superior cleanout properties” and the “Viscosity (in words)” value ([3]; listed as crystalline modification I of tribenuron-methyl) was “significant decrease in its viscosity”.
